According to the NIST ThermoML archive (doi:10.1016/j.jct.2012.10.028):
Numbers after ± are expanded uncertainties.

Key:
[1] = 101.33 kPa, Liquid, Vibrating tube method
[2] = refractive index (Na D-line) (dimensionless); details: 298.2 K; 101.33 kPa; Liquid; Standard Abbe refractometry

Compound | mass density ([1]; 298.2 K) [kg/m3] | refractive index [2] | mass density ([1]; 293.15 K) [kg/m3]
CCCCC(CC)CO (centres undefined) [2-ethyl-1-hexanol] | 830.57 ± 0.31 | 1.4293 ± 0.0005 | 
CC(=O)OCC(C)C [2-methylpropyl ethanoate] |  | 1.3878 ± 0.0005 | 866.58 ± 0.31
O=C1CCCCC1 [cyclohexanone] | 943.04 ± 0.32 | 1.4503 ± 0.0005 | 
CCCCCCCCO [octan-1-ol] | 824.1 ± 0.31 | 1.427 ± 0.0005 | 
O [water] |  | 1.3325 ± 0.0005 | 
